Data as given in US12077503B2, “Substituted cyclic amides and their use as herbicides” (FMC CORPORATION, priority 2015, dated 2024).

What was measured:
Assay type in all cases: in vivo
[1] = test system: barnyardgrass (Echinochloa crus-galli); assay: Test B flooded paddy test; details: Flood, 250 g ai/ha; 0 to 100 scale where 0 is no effect and 100 is complete control; 13 to 15 d
Protocol: (§1) Plant species in the flooded paddy test selected from rice (Oryra sativa), sedge, umbrella (small-flower umbrella sedge, Cyperus difformis), ducksalad (Heteranthera limosa), and barnyardgrass (Echinochloa crus-galli) were grown to the 2-leaf stage for testing. At time of treatment, test pots were flooded to 3 cm above the soil surface, treated by application of test compounds directly to the paddy water, and then maintained at that water depth for the duration of the test. Treated plants and controls were maintained in a greenhouse for 13 to 15 d, after which time all species were compared to controls and visually evaluated. Plant response ratings, summarized in Table B, are based on a scale of 0 to 100 where 0 is no effect and 100 is complete control. A dash (-) response means no test result.

[2] = test system: ducksalad (Heteranthera limosa); assay: Test B flooded paddy test; details: Flood, 250 g ai/ha; 0 to 100 scale where 0 is no effect and 100 is complete control; 13 to 15 d
Protocol: as §1

[3] = test system: sedge, umbrella (small-flower umbrella sedge, Cyperus difformis); assay: Test B flooded paddy test; details: Flood, 250 g ai/ha; 0 to 100 scale where 0 is no effect and 100 is complete control; 13 to 15 d
Protocol: as §1

[4] = test system: rice (Oryra sativa); assay: Test B flooded paddy test; details: Flood, 250 g ai/ha; 0 to 100 scale where 0 is no effect and 100 is complete control; 13 to 15 d
Protocol: as §1

[5] = test system: giant foxtail (Setaria faberii); assay: Test A preemergence; details: for Plant response rating, Foxtail, Giant: 125 g ai/ha, preemergence, 0 to 100 scale (0 no effect, 100 complete control); for Foxtail, Giant plant response rating (0 to 100 scale): Preemergence, 500 g ai/ha, 0 is no effect, 100 is complete control
Excerpt: (§2) Seeds of plant species selected from barnyardgrass (Echinochloa crus-galli), Kochia (Kochia scoparia), ragweed (common ragweed, Ambrosia elatior), ryegrass, Italian (Italian ryegrass, Lolium multiflorum), crabgrass, large (Digitaria sanguinalis), giant foxtail (Setaria faberii), green foxtail (Setaria viridis), morningglory (Ipomoea spp.), pigweed (Amaranthus retroflexus), velvetleaf (Abutilon theophrasti), wheat (Triticum aestivum), and corn (Zea mays) were planted into a blend of loam soil and sand and treated preemergence with a directed soil spray using test chemicals formulated in anon-phytotoxic solvent mixture which included a surfactant.
(§3) At the same time, plants selected from these crop and weed species and also blackgrass (Alopecurus myosuroides), and Galium (catchweed bedstraw, Galium aparine) were planted in pots containing the same blend of loam soil and sand and treated with postemergence applications of test chemicals formulated in the same manner. Plants ranged in height from 2 to 10 cm and were in the one- to two-leaf stage for the postemergence treatment. Treated plants and untreated controls were maintained in a greenhouse for approximately 10 d, after which time all treated plants were compared to untreated controls and visually evaluated for injury. Plant response ratings, summarized in Table A, are based on a 0 to 100 scale where 0 is no effect and 100 is complete control. A dash (-) response means no test result.

[6] = test system: ryegrass, Italian (Italian ryegrass, Lolium multiflorum); assay: Test A preemergence; details: for Plant response rating, Ryegrass, Italian: 125 g ai/ha, preemergence, 0 to 100 scale (0 no effect, 100 complete control); for Ryegrass, Italian plant response rating (0 to 100 scale): Preemergence, 500 g ai/ha, 0 is no effect, 100 is complete control
Excerpt: as §2, §3

[7] = test system: barnyardgrass (Echinochloa crus-galli); assay: Test A preemergence; details: for Plant response rating, Barnyardgrass: 125 g ai/ha, preemergence, 0 to 100 scale (0 no effect, 100 complete control); for Barnyardgrass plant response rating (0 to 100 scale): Preemergence, 500 g ai/ha, 0 is no effect, 100 is complete control
Excerpt: as §2, §3

[8] = test system: ragweed (common ragweed, Ambrosia elatior); assay: Test A preemergence; details: for Plant response rating, Ragweed: 125 g ai/ha, preemergence, 0 to 100 scale (0 no effect, 100 complete control); for Ragweed plant response rating (0 to 100 scale): Preemergence, 500 g ai/ha, 0 is no effect, 100 is complete control
Excerpt: as §2, §3

[9] = test system: pigweed (Amaranthus retroflexus); assay: Test A preemergence; details: for Plant response rating, Pigweed: 125 g ai/ha, preemergence, 0 to 100 scale (0 no effect, 100 complete control); for Pigweed plant response rating (0 to 100 scale): Preemergence, 500 g ai/ha, 0 is no effect, 100 is complete control
Excerpt: as §2, §3

[10] = test system: Kochia (Kochia scoparia); assay: Test A preemergence; details: for Plant response rating, Kochia: 125 g ai/ha, preemergence, 0 to 100 scale (0 no effect, 100 complete control); for Kochia plant response rating (0 to 100 scale): Preemergence, 500 g ai/ha, 0 is no effect, 100 is complete control
Excerpt: as §2, §3

[11] = test system: wheat (Triticum aestivum); assay: Test A postemergence
Excerpt: as §2, §3

[12] = test system: Galium (catchweed bedstraw, Galium aparine); assay: Test A postemergence
Excerpt: as §2, §3

[13] = test system: giant foxtail (Setaria faberii); assay: Test A postemergence
Excerpt: as §2, §3

[14] = test system: corn (Zea mays); assay: Test A postemergence
Excerpt: as §2, §3

[15] = test system: ryegrass, Italian (Italian ryegrass, Lolium multiflorum); assay: Test A postemergence
Excerpt: as §2, §3

[16] = test system: barnyardgrass (Echinochloa crus-galli); assay: Test A postemergence
Excerpt: as §2, §3

[17] = test system: blackgrass (Alopecurus myosuroides); assay: Test A postemergence
Excerpt: as §2, §3

[18] = test system: ragweed (common ragweed, Ambrosia elatior); assay: Test A postemergence
Excerpt: as §2, §3

[19] = test system: pigweed (Amaranthus retroflexus); assay: Test A postemergence
Excerpt: as §2, §3

[20] = test system: Kochia (Kochia scoparia); assay: Test A postemergence
Excerpt: as §2, §3

[21] = 500 g ai/ha, postemergence, 0 to 100 scale, 0 no effect, 100 complete control
[22] = Postemergence, 125 g ai/ha, visual injury, 0 to 100 scale (0 no effect, 100 complete control), approx. 10 d

| Compound | Plant response rating, Barnyardgrass [1] | Plant response rating, Ducksalad [2] | Plant response rating, Sedge, Umbrella [3] | Plant response rating, Rice [4] | Plant response rating, Foxtail, Giant [5] | Foxtail, Giant plant response rating (0 to 100 scale) [5] | Plant response rating, Ryegrass, Italian [6] | Ryegrass, Italian plant response rating (0 to 100 scale) [6] | Plant response rating, Barnyardgrass [7] | Barnyardgrass plant response rating (0 to 100 scale) [7] | Plant response rating, Ragweed [8] | Ragweed plant response rating (0 to 100 scale) [8] | Plant response rating, Pigweed [9] | Pigweed plant response rating (0 to 100 scale) [9] | Plant response rating, Kochia [10] | Kochia plant response rating (0 to 100 scale) [10] | Plant response rating, Wheat [11, 21] | Plant response rating, Wheat [11, 22] | Plant response rating, Galium [12, 21] | Plant response rating, Galium [12, 22] | further results |
| --- | --- | --- | --- | --- | --- | --- | --- | --- | --- | --- | --- | --- | --- | --- | --- | --- | --- | --- | --- | --- | --- |
| Cc1ccc(C2CNC(=O)C2C(=O)Nc2ccc(F)cc2F)cc1F (racemic) [Compound 370] | 60 | 100 | 30 | 0 | 90 | 90 | 0 | 0 | 90 | 90 | 0 | 20 | 0 | 0 | 0 | 30 | 20 | 0 | 60 | 20 | Plant response rating, Foxtail, Giant [13, 21]: 70; Plant response rating, Foxtail, Giant [13, 22]: 40; Plant response rating, Corn [14, 21]: 20; Plant response rating, Corn [14, 22]: 0; Plant response rating, Ryegrass, Italian [15, 21]: 20; Plant response rating, Ryegrass, Italian [15, 22]: 0; Plant response rating, Barnyardgrass [16, 21]: 90; Plant response rating, Barnyardgrass [16, 22]: 80; Plant response rating, Blackgrass [17, 21]: 40; Plant response rating, Blackgrass [17, 22]: 0; Plant response rating, Ragweed [18, 21]: 50; Plant response rating, Ragweed [18, 22]: 0; Plant response rating, Pigweed [19, 21]: 0; Plant response rating, Pigweed [19, 22]: 0; Plant response rating, Kochia [20, 21]: 0; Plant response rating, Kochia [20, 22]: 0 |
| Cc1cccc(C2CNC(=O)C2C(=O)Nc2ccccc2F)c1 (racemic) [Compound 372] | 60 | 100 | 0 | 35 | 80 | 90 | 0 | 30 | 90 | 90 | 0 | 30 | 0 | 50 | 0 | 0 | 20 | 0 | 20 | 0 | Plant response rating, Foxtail, Giant [13, 21]: 70; Plant response rating, Foxtail, Giant [13, 22]: 50; Plant response rating, Corn [14, 21]: 20; Plant response rating, Corn [14, 22]: 0; Plant response rating, Ryegrass, Italian [15, 21]: 40; Plant response rating, Ryegrass, Italian [15, 22]: 20; Plant response rating, Barnyardgrass [16, 21]: 80; Plant response rating, Barnyardgrass [16, 22]: 80; Plant response rating, Blackgrass [17, 21]: 30; Plant response rating, Blackgrass [17, 22]: 20; Plant response rating, Ragweed [18, 21]: 0; Plant response rating, Ragweed [18, 22]: 0; Plant response rating, Pigweed [19, 21]: 30; Plant response rating, Pigweed [19, 22]: 20; Plant response rating, Kochia [20, 21]: 40; Plant response rating, Kochia [20, 22]: 0 |
